From publication PMC6017101, “In Silico and In Vitro Study of the Bromelain-Phytochemical Complex Inhibition of Phospholipase A2 (Pla2)” (Molecules : A Journal of Synthetic Chemistry and Natural …, 2018)

Biological target: T1, porcine group IB phospholipase A2 (pG-IB); Pla2 (Sus scrofa, UniProt P00592)
T1 construct: gene PLA2G1B; commercial enzyme (Sigma-Aldrich); no tag stated
Assay: colorimetric phenol red assay, […] nm, lecithin hydrolysis; median-effect plot
Format: biochemical
Settings: read-out: Dm (mg/mL) ^a (converted)

T1 sequence (P00592 23-146): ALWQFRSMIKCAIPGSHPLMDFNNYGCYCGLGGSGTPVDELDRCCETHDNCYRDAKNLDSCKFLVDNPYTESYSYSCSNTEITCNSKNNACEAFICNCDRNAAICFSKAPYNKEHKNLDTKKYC

| SMILES | IC50 [µM] |
| --- | --- |
| O=c1cc(-c2ccc(O)c(-c3c(O)cc(O)c4c(=O)cc(-c5ccc(O)cc5)oc34)c2)oc2cc(O)cc(O)c12 [amenthoflavone] | 200 |
| C[C@H]1[C@H](C)CC[C@]2(C(=O)O[C@@H]3O[C@H](CO[C@@H]4O[C@H](CO)[C@@H](O[C@@H]5O[C@@H](C)[C@H](O)[C@@H](O)[C@H]5O)[C@H](O)[C@H]4O)[C@@H](O)[C@H](O)[C@H]3O)CC[C@]3(C)C(=CC[C@@H]4[C@@]5(C)C[C@@H](O)[C@H](O)[C@@](C)(CO)[C@@H]5CC[C@]43C)[C@H]12 [asiaticoside] | 328 |
| C[C@@H]1CC[C@@]2(OC1)O[C@H]1C[C@H]3[C@@H]4CC=C5C[C@@H](O)CC[C@]5(C)[C@H]4CC[C@]3(C)[C@H]1[C@@H]2C [diosgenin] | 2330 |
